The values below come from US6780996B2, “Process for the preparation of 7-substituted-3 quinolinecarbonitriles” (Wyeth Holdings Corporation, priority 2002, dated 2004).

Broadly, the melting point is the temperature, or range, at which the solid turns liquid.

For the compound `CCCCOc1cc2c(Nc3cc(OC)c(Cl)cc3Cl)c(C#N)cnc2cc1OCCOC` [Example 24, 6-Butoxy-4-[(2,4-dichloro-5-methoxyphenyl)amino]-7-(2-methoxyethoxy)-3-quinolinecarbonitrile], the melting point was 166 to 167 °C. The compound `COc1cc(Nc2c(C#N)cnc3cc(OCc4ccccc4)c(OC)cc23)c(Cl)cc1Cl` [Example 6, 7-Benzyloxy-4-[(2,4-dichloro-5-methoxyphenyl)amino]-6-methoxy-3-quinolinecarbonitrile] displayed a melting point of 198 to 200 °C. In the case of `CCOc1cc2c(Nc3cc(OC)c(Cl)cc3Cl)c(C#N)cnc2cc1OCCOC` [Example 23, 4-[(2,4-Dichloro-5-methoxyphenyl)amino]-6-ethoxy-7-(2-methoxyethoxy)3-quinolinecarbonitrile] it was 215 to 217 °C.
